Test results reported in US12448373B2, “Azetidinyl-acetamides as CXCR7 inhibitors” (CHEMOCENTRYX, INC., priority 2021, dated 2025).

biological target: T1, CXCR7 (Homo sapiens, UniProt P25106); test: CXCR7 β-arrestin recruitment assay in CHO-CXCR7 cells (ProLink/EA β-galactosidase complementation), induced by human SDF-1a; assay type: cell-based; conditions: assay buffer, SDF-1a at EC50 concentration
T1 construct: expressed in transfected cells; host or cells: CHO cells (CHO-CXCR7), transgenes maintained with Hygromycin B and G418
How it was run: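 SDF-1α-induced β-arrestin recruitment was measured by enzyme-fragment complementation (ProLink-CXCR7 with β-arrestin-EA) in stable CHO cells. Agonist was dosed at its EC50, determined the same day, alongside serially diluted compound for 1.5 h at 37 °C. Fluorogenic galactoside substrate (0.4 mM, 30 min) was read at 360/465 nm, with IC50 from 3-parameter nonlinear regression.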

T1 sequence (P25106 whole entry): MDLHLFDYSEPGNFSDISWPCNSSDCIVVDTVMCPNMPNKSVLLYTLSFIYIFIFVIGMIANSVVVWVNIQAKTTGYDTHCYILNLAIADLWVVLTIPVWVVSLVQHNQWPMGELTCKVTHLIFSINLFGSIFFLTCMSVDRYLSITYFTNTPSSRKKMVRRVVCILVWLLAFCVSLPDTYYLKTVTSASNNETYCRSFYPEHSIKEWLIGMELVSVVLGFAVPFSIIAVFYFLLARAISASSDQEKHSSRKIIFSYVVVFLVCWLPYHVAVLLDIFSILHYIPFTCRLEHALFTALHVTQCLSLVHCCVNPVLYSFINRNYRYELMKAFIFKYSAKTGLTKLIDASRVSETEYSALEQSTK

IC50 [nM] | SMILES
1000 to 20000 | CC(N1CC(CC(=O)NC(C)(C)c2ccccn2)(NC(=O)c2cc(-c3ccc(F)cc3F)on2)C1)C(F)(F)F (stereo not shown) [Example 1.312]
5 to 100 | CC(C)(NC(=O)CC1(NC(=O)c2cc(-c3ccc(F)cc3F)on2)CN(C2CC2)C1)c1ccccn1 [Example 1.313]
1000 to 20000 | CC(C)(NC(=O)CC1(NC(=O)c2cc(-c3ccc(F)cc3F)on2)CN(c2ccccn2)C1)c1ccccn1 [Example 1.314]
1000 to 20000 | CC(C)(NC(=O)CC1(NC(=O)c2cc(-c3ccc(F)cc3F)on2)CN(c2ncccn2)C1)c1ccccn1 [Example 1.315]
5 to 100 | O=C(CC1(NC(=O)c2cc(-c3ccc(F)cc3F)on2)CN(C2CCCCC2)C1)N[C@H](CO)c1ccccc1 [Example 1.316]
5 to 100 | CC(C)(NC(=O)CC1(NC(=O)c2cc(-c3ccc(F)cc3F)on2)CN(C2CCOCC2)C1)c1ccccn1 [Example 1.317]
< 5 | CC(C)(NC(=O)CC1(NC(=O)c2cc(-c3ccc(F)cc3F)on2)CN(C2CCCCC2)C1)c1ccccc1 [Example 1.318]
5 to 100 | CC(C)(NC(=O)CC1(NC(=O)c2cc(-c3ccc(F)cc3F)on2)CN(C2CCC(F)(F)CC2)C1)c1ccccn1 [Example 1.319]
5 to 100 | O=C(CC1(NC(=O)c2cc(-c3ccc(F)cc3F)on2)CN(C2CCCCC2)C1)NC1(c2ccccc2)COC1 [Example 1.320]
100 to 1000 | O=C(CC1(NC(=O)c2cc(-c3ccc(F)cc3F)on2)CN(CC2CC2)C1)NC1(c2ccccc2)CC1 [Example 1.321]
5 to 100 | CC(C)(NC(=O)CC1(NC(=O)c2cc(-c3ccc(F)cc3F)on2)CN(CC2CC2)C1)c1ccccc1 [Example 1.322]
100 to 1000 | C[C@@H](NC(=O)CC1(NC(=O)c2cc(-c3ccc(F)cc3F)on2)CN(CC2CC2)C1)c1ccccn1 [Example 1.323]
1000 to 20000 | C[C@H](NC(=O)CC1(NC(=O)c2cc(-c3ccc(F)cc3F)on2)CN(CC2CC2)C1)c1ccccn1 [Example 1.324]
5 to 100 | O=C(CC1(NC(=O)c2cc(-c3ccc(F)cc3F)on2)CN(C2CCCCC2)C1)NC1(c2ccccc2)CC1 [Example 1.325]
< 5 | CC(C)(NC(=O)CC1(NC(=O)c2cc(-c3ccc(F)cc3F)on2)CN(C2CCCCC2)C1)c1ccccn1 [Example 1.326]
5 to 100 | CC(C)(NC(=O)CC1(NC(=O)c2cc(-c3ccc(F)cc3F)on2)CN(CC2CC2)C1)c1ccccn1 [Example 1.327]
100 to 1000 | O=C(CC1(NC(=O)c2cc(-c3ccc(F)cc3F)on2)CN(C2CCOCC2)C1)NC1(c2ncccn2)CC1 [Example 1.328]

IC50 [nM] | SMILES
100 to 1000 | O=C(CC1(NC(=O)c2cc(-c3ccc(F)cc3F)on2)CN(Cc2ccccc2)C1)NC1(c2ncccn2)CC1 [Example 1.329]
5 to 100 | CC(C)(C)CN1CC(CC(=O)NC2(c3ncccn3)CC2)(NC(=O)c2cc(-c3ccc(F)cc3F)on2)C1 [Example 1.330]
5 to 100 | O=C(CC1(NC(=O)c2cc(-c3ccc(F)cc3F)on2)CN(C2CCCC2)C1)NC1(c2ncccn2)CC1 [Example 1.331]
5 to 100 | O=C(CC1(NC(=O)c2cc(-c3ccc(F)cc3F)on2)CN(C2CCCCC2)C1)NC1(c2ncccn2)CC1 [Example 1.332]
100 to 1000 | CC(C)N1CC(CC(=O)NC2(c3ncccn3)CC2)(NC(=O)c2cc(-c3ccc(F)cc3F)on2)C1 [Example 1.333]
5 to 100 | O=C(CC1(NC(=O)c2cc(-c3ccc(F)cc3F)on2)CN(CC2CC2)C1)NC1(c2ncccn2)CC1 [Example 1.334]
5 to 100 | Cc1cc(C(C)(C)NC(=O)CC2(NC(=O)c3nnc(-c4ccc(F)cc4F)s3)CN([C@H]3CC[C@](C)(O)CC3)C2)ccn1 [Example 1.335]
5 to 100 | CC(C)(NC(=O)CC1(NC(=O)c2nnc(-c3ccc(F)cc3F)s2)CN([C@H]2CC[C@](C)(O)CC2)C1)c1cc(Cl)ccc1F [Example 1.336]
< 5 | Cc1cc(C#N)cc(C(C)(C)NC(=O)CC2(NC(=O)c3nnc(-c4ccc(F)cc4F)s3)CN([C@H]3CC[C@](C)(O)CC3)C2)n1 [Example 1.337]
5 to 100 | Cc1ccnc(C(C)(C)NC(=O)CC2(NC(=O)c3nnc(-c4ccc(F)cc4F)s3)CN([C@H]3CC[C@](C)(O)CC3)C2)c1 [Example 1.338]
5 to 100 | COc1cc(C)nc(C(C)(C)NC(=O)CC2(NC(=O)c3cc(-c4ccc(F)cc4F)on3)CN([C@H]3CC[C@](C)(O)CC3)C2)c1 [Example 1.339]
1000 to 20000 | Cc1c(C(=O)NC2(CC(=O)NC(C)(C)c3cccc(Cl)c3)CN(C3CCCCC3)C2)noc1-c1ccc(F)cc1F [Example 1.340]
1000 to 20000 | Cc1cc(C)nc(C(C)(C)NC(=O)CC2(NC(=O)c3noc(-c4ccc(F)cc4F)c3C)CN(C3CCCCC3)C2)n1 [Example 1.341]
5 to 100 | COc1cc(OC)nc(C(C)(C)NC(=O)CC2(NC(=O)c3nnc(-c4ccc(F)cc4F)s3)CN([C@H]3CC[C@](C)(O)CC3)C2)c1 [Example 1.342]
5 to 100 | Cc1cc(C(F)(F)F)cc(C(C)(C)NC(=O)CC2(NC(=O)c3cc(-c4ccc(F)cc4F)on3)CN([C@H]3CC[C@](C)(O)CC3)C2)n1 [Example 1.343]
100 to 1000 | Cc1cc(C(C)C)cc(C(C)(C)NC(=O)CC2(NC(=O)c3cc(-c4ccc(F)cc4F)on3)CN([C@H]3CC[C@](C)(O)CC3)C2)n1 [Example 1.344]
5 to 100 | CC(C)(NC(=O)CC1(NC(=O)c2nnc(-c3ccc(F)cc3F)s2)CN([C@H]2CC[C@](C)(O)CC2)C1)c1cc(Cl)cc(C#N)c1 [Example 1.345]

Further lines, the compound ahead of its results:

SMILES | IC50 [nM]
COC1(C)CCC(N2CC(CC(=O)NC(C)(C)c3ccccn3)(NC(=O)c3cc(-c4ccc(F)cc4F)on3)C2)CC1 (stereo not shown) [Example 1.285] | 5 to 100
CC(C)(NC(=O)CC1(NC(=O)c2cc(-c3ccc(F)cc3F)on2)CN([C@H]2CCC[C@@H](O)C2)C1)c1ccccn1 [Example 1.286] | 5 to 100
CC(C)(NC(=O)CC1(NC(=O)c2cc(-c3ccc(F)cc3F)on2)CN([C@H]2CC[C@](C)(O)CC2)C1)c1ccc(F)cc1F [Example 1.287] | 5 to 100
CC(C)(NC(=O)CC1(NC(=O)c2cc(-c3ccc(F)cc3F)on2)CN([C@H]2CC[C@@](C)(O)CC2)C1)c1ccc(F)cc1F [Example 1.288] | 5 to 100
CC(C)(NC(=O)CC1(NC(=O)c2cc(-c3ccc(F)cc3F)on2)CN([C@H]2CC[C@](C)(O)CC2)C1)c1cccc(F)c1 [Example 1.289] | < 5
CC(C)(NC(=O)CC1(NC(=O)c2cc(-c3ccc(F)cc3F)on2)CN([C@H]2CC[C@@](C)(O)CC2)C1)c1cccc(F)c1 [Example 1.290] | < 5
CC(C)(NC(=O)CC1(NC(=O)c2cc(-c3ccc(F)cc3F)on2)CN([C@H]2CC[C@](C)(O)CC2)C1)c1ccccc1C(F)(F)F [Example 1.291] | < 5
CC(C)(NC(=O)CC1(NC(=O)c2cc(-c3ccc(F)cc3F)on2)CN([C@H]2CC[C@@](C)(O)CC2)C1)c1ccccc1C(F)(F)F [Example 1.292] | < 5
Cc1cccc(C(C)(C)NC(=O)CC2(NC(=O)c3cc(-c4ccc(F)cc4F)on3)CN(C3CCCCC3)C2)n1 [Example 1.293] | < 5
CC(C)(NC(=O)CC1(NC(=O)c2cc(-c3ccc(F)cc3F)on2)CN(C2CCC3(CC2)COC3)C1)c1ccccn1 [Example 1.294] | < 5
COC[C@@H](NC(=O)CC1(NC(=O)c2cc(-c3ccc(F)cc3F)on2)CN(C2CCCCC2)C1)c1ccccc1 [Example 1.295] | 100 to 1000
CC(C)(NC(=O)CC1(NC(=O)c2cc(-c3ccc(F)cc3F)on2)CN(C2CCC3(CCC3)CC2)C1)c1ccccn1 [Example 1.296] | 100 to 1000
CC(C)(NC(=O)CC1(NC(=O)c2cc(-c3ccc(F)cc3F)on2)CN(C2CCCCC2)C1)c1cccc(F)n1 [Example 1.297] | < 5
CC(C)(NC(=O)CC1(NC(=O)c2cc(-c3ccc(F)cc3F)on2)CN(C2CCCCC2)C1)c1ccc(F)cc1 [Example 1.298] | 5 to 100
COC1CCC(N2CC(CC(=O)NC(C)(C)c3ccccn3)(NC(=O)c3cc(-c4ccc(F)cc4F)on3)C2)CC1 (stereo not shown) [Example 1.299] | 5 to 100
CC(C)(NC(=O)CC1(NC(=O)c2cc(-c3ccc(F)cc3F)on2)CN(C2CCC(O)CC2)C1)c1ccccn1 (stereo not shown) [Example 1.300] | 5 to 100
CC(C)(NC(=O)CC1(NC(=O)c2cc(-c3ccc(F)cc3F)on2)CN(C2CCCCC2)C1)c1cccc(F)c1 [Example 1.301] | < 5
CC(C)(NC(=O)CC1(NC(=O)c2cc(-c3ccc(F)cc3F)on2)CN(C2CCCCC2)C1)c1ccccc1F [Example 1.302] | < 5
CC(C)(NC(=O)CC1(NC(=O)c2cc(-c3ccc(F)cc3F)on2)CN([C@H]2CC[C@](C)(O)CC2)C1)c1ccccn1 [Example 1.303] | < 5
CC[C@H](NC(=O)CC1(NC(=O)c2cc(-c3ccc(F)cc3F)on2)CN(C2CCCCC2)C1)c1ccccc1 [Example 1.304] | 5 to 100
COC1CCCCC1N1CC(CC(=O)NC(C)(C)c2ccccn2)(NC(=O)c2cc(-c3ccc(F)cc3F)on2)C1 (stereo not shown) [Example 1.305] | < 5
O=C(CC1(NC(=O)c2cc(-c3ccc(F)cc3F)on2)CN(C2CCCCC2)C1)NC1(c2ccccn2)CC1 [Example 1.306] | 5 to 100
CC[C@@H](NC(=O)CC1(NC(=O)c2cc(-c3ccc(F)cc3F)on2)CN(C2CCCCC2)C1)c1ccccc1 [Example 1.307] | 5 to 100
CC(C)(NC(=O)CC1(NC(=O)c2cc(-c3ccc(F)cc3F)on2)CN(C2CCCCC2)C1)c1ccccc1C(F)(F)F [Example 1.308] | < 5
CC(C)(CO)NC(=O)CC1(NC(=O)c2cc(-c3ccc(F)cc3F)on2)CN(C2CCCCC2)C1 [Example 1.309] | 100 to 1000
O=C(CC1(NC(=O)c2cc(-c3ccc(F)cc3F)on2)CN(C2CCCCC2)C1)N[C@@H](CO)c1ccccc1 [Example 1.310] | 1000 to 20000
CC(C)(NC(=O)CC1(NC(=O)c2cc(-c3ccc(F)cc3F)on2)CN(C2CCCCC2(F)F)C1)c1ccccn1 (stereo not shown) [Example 1.311] | 5 to 100
